Measurements taken from patent publication US12077503B2, “Substituted cyclic amides and their use as herbicides” (FMC CORPORATION, priority 2015, dated 2024).

What was measured:
Format in all cases: in vivo
[1] = test system: ivy-leaved morning glory (Ipomoea hederacea); assay: Test G Post-Emergence Protocol; conditions: Ipomoea, post-emergence, 312 h, read-out: Morningglory, Ivy-leaved damage rating
Procedure, shortened: (§1)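 Eight days post-sowing, plants received a spray of test compound (acetone/water 50:50, 0.5% Tween 20) at 15.625, 62.5 or 250 g/ha. Glasshouse regime thereafter: 24/16 °C, 14 h light, 65% humidity. Assessment after 13 days on a 0–100 damage scale.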

[2] = test system: giant foxtail (Setaria faberi); assay: Test G Post-Emergence Protocol; conditions: Setaria faberi, post-emergence, 312 h, read-out: Foxtail, Giant damage rating
Procedure, shortened: as §1

[3] = test system: velvetleaf (Abutilon theophrasti); assay: Test G Post-Emergence Protocol; conditions: Abutilon theophrasti, post-emergence, 312 h, read-out: Velvetleaf damage rating
Procedure, shortened: as §1

[4] = test system: barnyardgrass (Echinochloa crus-galli); assay: Test G Post-Emergence Protocol; conditions: Echinochloa crus-galli, post-emergence, 312 h, read-out: Barnyardgrass damage rating
Procedure, shortened: as §1

[5] = test system: redroot pigweed (Amaranthus retroflexus); assay: Test G Post-Emergence Protocol; conditions: Amaranthus retroflexus, post-emergence, 312 h, read-out: Pigweed, Redroot damage rating
Procedure, shortened: as §1

corn (Zea mays) [6] = assay: Test G Post-Emergence Protocol; conditions: Zea mays, post-emergence, 312 h, read-out: Corn damage rating
Procedure, shortened: as §1

[7] = test system: ivy-leaved morning glory (Ipomoea hederacea); assay: Test G Pre-Emergence Protocol; conditions: Ipomoea, pre-emergence, 312 h, evaluated after 13 days
Procedure, shortened: (§2)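 Under a 24/16° C day/night regime with 14 h light and 65% humidity, sown pots were sprayed after one day with compound (15.625, 62.5 or 250 g/ha; 50:50 acetone/water, 0.5% Tween 20). Damage was assessed visually 13 days later, 0 to 100.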

[8] = test system: giant foxtail (Setaria faberi); assay: Test G Pre-Emergence Protocol; conditions: Setaria faberi, pre-emergence, 312 h, evaluated after 13 days
Procedure, shortened: as §2

[9] = test system: velvetleaf (Abutilon theophrasti); assay: Test G Pre-Emergence Protocol; conditions: Abutilon theophrasti, pre-emergence, 312 h, evaluated after 13 days
Procedure, shortened: as §2

[10] = test system: barnyardgrass (Echinochloa crus-galli); assay: Test G Pre-Emergence Protocol; conditions: Echinochloa crus-galli, pre-emergence, 312 h, evaluated after 13 days
Procedure, shortened: as §2

[11] = test system: redroot pigweed (Amaranthus retroflexus); assay: Test G Pre-Emergence Protocol; conditions: Amaranthus retroflexus, pre-emergence, 312 h, evaluated after 13 days
Procedure, shortened: as §2

corn (Zea mays) [12] = assay: Test G Pre-Emergence Protocol; conditions: Zea mays, pre-emergence, 312 h, evaluated after 13 days
Procedure, shortened: as §2

[13] = 15.625 g ai/ha, evaluated after 13 days (100=total damage to plant; 0=no damage to plant)
[14] = 62.5 g ai/ha, evaluated after 13 days, 100=total damage to plant, 0=no damage to plant
[15] = 250 g ai/ha, evaluated after 13 days, 100=total damage to plant, 0=no damage to plant

## CN1C[C@H](c2cc(C(F)(F)F)cc(C(F)(F)F)c2)[C@@H](C(=O)Nc2ccccc2S(C)(=O)=O)C1=O (racemic) [Compound 1794]
[1]; [13]
  pest or weed control at 15.625 g/ha: 20%
[1]; [14]
  pest or weed control at 62.5 g/ha: 50%
[1]; [15]
  pest or weed control at 250 g/ha: 70%
[2]; [13]
  pest or weed control at 15.625 g/ha: 0%
[2]; [14]
  pest or weed control at 62.5 g/ha: 60%
[2]; [15]
  pest or weed control at 250 g/ha: 80%
[3]; [13]
  pest or weed control at 15.625 g/ha: 0%
[3]; [14]
  pest or weed control at 62.5 g/ha: 0%
[3]; [15]
  pest or weed control at 250 g/ha: 10%
[4]; [13]
  pest or weed control at 15.625 g/ha: 0%
[4]; [14]
  pest or weed control at 62.5 g/ha: 40%
[4]; [15]
  pest or weed control at 250 g/ha: 70%
[5]; [13]
  pest or weed control at 15.625 g/ha: 0%
[5]; [14]
  pest or weed control at 62.5 g/ha: 40%
[5]; [15]
  pest or weed control at 250 g/ha: 70%
Corn (Zea mays) [6]; [13]
  plant injury at 15.625 g/ha: 20%
Corn (Zea mays) [6]; [14]
  plant injury at 62.5 g/ha: 50%
Corn (Zea mays) [6]; [15]
  plant injury at 250 g/ha: 70%
[7]; 15.625 g ai/ha, read-out: Morningglory, Ivy-leaved damage rating (100=total damage to plant; 0=no damage to plant)
  pest or weed control at 15.625 g/ha: 0%
[7]; 62.5 g ai/ha, 100=total damage to plant, 0=no damage to plant, read-out: Morningglory, Ivy-leaved damage rating
  pest or weed control at 62.5 g/ha: 0%
[7]; 250 g ai/ha, read-out: Morningglory, Ivy-leaved damage rating (100=total damage to plant; 0=no damage to plant)
  pest or weed control at 250 g/ha: 10%
[8]; 15.625 g ai/ha, read-out: Foxtail, Giant damage rating (100=total damage to plant; 0=no damage to plant)
  pest or weed control at 15.625 g/ha: 30%
[8]; 62.5 g ai/ha, 100=total damage to plant, 0=no damage to plant, read-out: Foxtail, Giant damage rating
  pest or weed control at 62.5 g/ha: 60%
[8]; 250 g ai/ha, read-out: Foxtail, Giant damage rating (100=total damage to plant; 0=no damage to plant)
  pest or weed control at 250 g/ha: 90%
[9]; 15.625 g ai/ha, read-out: Velvetleaf damage rating (100=total damage to plant; 0=no damage to plant)
  pest or weed control at 15.625 g/ha: 0%
[9]; 62.5 g ai/ha, 100=total damage to plant, 0=no damage to plant, read-out: Velvetleaf damage rating
  pest or weed control at 62.5 g/ha: 0%
[9]; 250 g ai/ha, read-out: Velvetleaf damage rating (100=total damage to plant; 0=no damage to plant)
  pest or weed control at 250 g/ha: 0%
[10]; 15.625 g ai/ha, read-out: Barnyardgrass damage rating (100=total damage to plant; 0=no damage to plant)
  pest or weed control at 15.625 g/ha: 0%
[10]; 62.5 g ai/ha, 100=total damage to plant, 0=no damage to plant, read-out: Barnyardgrass damage rating
  pest or weed control at 62.5 g/ha: 40%
[10]; 250 g ai/ha, read-out: Barnyardgrass damage rating (100=total damage to plant; 0=no damage to plant)
  pest or weed control at 250 g/ha: 80%
[11]; 15.625 g ai/ha, read-out: Pigweed, Redroot damage rating (100=total damage to plant; 0=no damage to plant)
  pest or weed control at 15.625 g/ha: 0%
[11]; 62.5 g ai/ha, 100=total damage to plant, 0=no damage to plant, read-out: Pigweed, Redroot damage rating
  pest or weed control at 62.5 g/ha: 0%
[11]; 250 g ai/ha, read-out: Pigweed, Redroot damage rating (100=total damage to plant; 0=no damage to plant)
  pest or weed control at 250 g/ha: 80%
Corn (Zea mays) [12]; 15.625 g ai/ha, read-out: Corn damage rating (100=total damage to plant; 0=no damage to plant)
  plant injury at 15.625 g/ha: 30%
Corn (Zea mays) [12]; 62.5 g ai/ha, 100=total damage to plant, 0=no damage to plant, read-out: Corn damage rating
  plant injury at 62.5 g/ha: 50%
Corn (Zea mays) [12]; 250 g ai/ha, read-out: Corn damage rating (100=total damage to plant; 0=no damage to plant)
  plant injury at 250 g/ha: 80%
